The values that follow come from patent US10570179B2, “Substituted urea depsipeptide analogs as activators of the CLPP endopeptidase” (priority 2016, dated 2020).

What is called IC50 is the concentration that gives 50% inhibition.

Series [1] can be described thus: Cytotoxicity assay (CellTiter-Glo cell viability). The series is classed as cell-based. The conditions noted are these: African green monkey. How it is done:
Cytotoxicity was determined by determining the effect of compounds on cell viability. Vero (kidney epithelial cells; ATCC CCL-81) monolayers were trypsinized and 5000 cells/well were seeded (10-15% confluency) into white-wall, flat bottom 96 well microwell plates (Corning) using enriched Dulbecco's Modified Eagle's Medium (Hyclone: DMEM/High Glucose) containing 10% Fetal Bovine Serum (ATCC-30-2020). Plates were incubated overnight at 37° C. in the presence of 5% CO2. Drug-free media was then replaced with media containing serial dilutions of test compound or DMSO carrier. After an additional 72 hours of incubation, viability was indirectly measured using the CellTiter-Glo® Luminescent Cell Viability (Promega) assay. Assay plates were read at peak emission wavelength of 560 nm using a EnVision® Multilabel Plate Reader (Perkin Elmer) or PHERAstar FS Multilabel reader (BMG, Cary, N.C.). The concentration of test compounds that inhibited growth by 50% (IC50 value) was computed using nonlinear regression based fitting of inhibition curves using log [inhibitor] vs. response-variable slope (four parameters)—symmetrical equation, in GraphPad Prism version 6 [GraphPad Software, La Jolla, Calif. USA, www.graphpad.com]. For each experiment, compounds were tested in duplicate. IC50 values presented are the range of two biologically independent experiments.
(Cellular ATP, detected with luciferase, serves as a proxy for viable cell number.)

Another series relates to B. subtilis. Put plainly: Minimal inhibitory concentration, microbroth dilution. The series is classed as cell-based. The conditions noted are these: Bacillus subtilis, read-out: Minimal Inhibitory Concentrations (μM) B. subtilis. Put shortly:
(§1)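 Compound was diluted twofold in the appropriate broth. Bacterial suspension (approx. 10^5 cfu/mL) was then added in equal volume, giving a maximum test concentration of 200 μM. After aerobic overnight incubation at 37 °C, wells were inspected visually for growth.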

The nature of a further series: Plasma pharmacokinetics. The conditions noted are these: for Vd: read-out: Vss. It counts as in vivo, male BALB/c mice.
In another series the test system is S. pneumoniae. Put plainly: Minimal inhibitory concentration, microbroth dilution. It counts as cell-based. To be noted: Streptococcus pneumoniae; MIC; read-out: Minimal Inhibitory Concentrations (μM) S. pneumoniae. Put shortly: as §1
On the technique in general: Dilution methods test growth across graded concentrations, often in twofold steps.

The mark [2] stands for this setting: Vero cells, 72 hours, read-out: Cytotoxicity IC50.
[3] abbreviates: male, BALB/c, mouse, in vivo, iv, 10 mg/kg, Route i.v.
[4] abbreviates: male, BALB/c, mouse, in vivo, iv.

≈ marks a conversion by molar mass, not a printed value. Read-outs that look alike come from different tables or passages of the source. Numbered stars: 1 amine (or outer) side, 2 acyl side, 3 side chain; on linkers, the order of the positions; unused ones are H or OH. Bridge positions count the residues as written; N and C are the ends. Square brackets hold non-standard residues; d marks the D form. Peptide text beside a SMILES is read from it. * marks the point of attachment. ξ: configuration not given here. Phe(3,5-Me2) = Cc1cc(C)cc(C[C@H](N)C(=O)O)c1; Phe(3-Me) = Cc1cccc(C[C@H](N)C(=O)O)c1; NH(4-Cl-2-F-phenyl) = Fc1cc(Cl)ccc1N*; Pro(4R-Me) = C[C@H]1CN[C@H](C(=O)O)C1; NH(4-Me-phenyl) = Cc1ccc(N*)cc1; ξNMeThr = CNC(C(=O)O)[C@@H](C)O; aThr = C[C@H](O)[C@H](N)C(=O)O; Pip = O=C(O)[C@@H]1CCCCN1; CO = O=C([*:1])[*:2] Where only a bound is given, the exact number is not on record here.

For `Cc1ccc(NC(=O)N[C@@H](Cc2cccc(C)c2)C(=O)N[C@@H]2C(=O)N3CCC[C@H]3C(=O)N3CCCC[C@H]3C(=O)N[C@@H](C)C(=O)N3C[C@H](C)C[C@H]3C(=O)O[C@H]2C)cc1` [Compound 1, (S)-3-(M-TOLYL)-2-(3-(P-TOLYL)UREIDO)-N-((2R,6S,8AS,14AS,20S,21S,23AS)-2,6,21-TRIMETHYL-5,8,14,19,23-PENTAOXOOCTADECAHYDRO-1H,5H,14H,19H-PYRIDO[2,1-I]DIPYRROLO[2,1-C:2′,1′-L][1]OXA[4,7,10,13]TETRAAZACYCLOHEXADECIN-20-YL)PROPANAMIDE] ({NH(4-Me-phenyl)-CO}-[Phe(3-Me)][aThr]P[Pip]A[Pro(4R-Me)]; ester 2-C), the IC50 at 72 h in series [1] (setting [2]) is 1.59 ± 0.08 µM. Besides, in the series on B. subtilis, the MIC was found to be 0.313 µM (≈ 0.246 µg/mL). Moreover, the “C^0” value in “Plasma pharmacokinetics” (Route i.v.) was 26862.75 ng/mL. For the same molecule, the AUC(0-inf) in the series “Plasma pharmacokinetics” (male, BALB/c, mouse, in vivo, iv, 10 mg/kg, Route i.v., read-out: AUCinf) came out at 7620 ng·h/mL. Also, the AUC(0-t) in “Plasma pharmacokinetics” (male, BALB/c, mouse, in vivo, iv, 10 mg/kg, Route i.v., read-out: AUClast) turned out to be 7590 ng·h/mL. Moreover, in “Plasma pharmacokinetics” (male, BALB/c, mouse, in vivo, iv, 10 mg/kg, Route i.v., read-out: CL), the clearance amounted to 21.9 mL/min/kg. Further, the half-life in “Plasma pharmacokinetics” (male, BALB/c, mouse, in vivo, iv, 10 mg/kg, Route i.v., read-out: T1/2 (converted)) is 0.49 h. The Vd in “Plasma pharmacokinetics” (setting [3]) was 0.74 L/kg.

`Cc1ccc(NC(=O)N[C@@H](Cc2cc(C)cc(C)c2)C(=O)N[C@@H]2C(=O)N3CCC[C@H]3C(=O)N3CCCC[C@H]3C(=O)N[C@@H](C)C(=O)N3C[C@H](C)C[C@H]3C(=O)O[C@H]2C)cc1` [Compound 2, (S)-3-(3,5-DIMETHYLPHENYL)-2-(3-(P-TOLYL)UREIDO)-N-((2R,6S,8AS,14AS,20S,21S,23AS)-2,6,21-TRIMETHYL-5,8,14,19,23-PENTAOXOOCTADECAHYDRO-1H,5H,14H,19H-PYRIDO[2,1-I]DIPYRROLO[2,1-C:2′,1′-L][1]OXA[4,7,10,13]TETRAAZACYCLOHEXADECIN-20-YL)PROPANAMIDE] ({NH(4-Me-phenyl)-CO}-[Phe(3,5-Me2)][aThr]P[Pip]A[Pro(4R-Me)]; ester 2-C): the IC50 at 72 h in series [1] (setting [2]) is over 100 µM. For the same molecule, the MIC in the series with B. subtilis stood at 0.625 µM (≈ 0.5 µg/mL).

For `Cc1cccc(C[C@H](NC(=O)Nc2ccc(Cl)cc2F)C(=O)N[C@@H]2C(=O)N3CCC[C@H]3C(=O)N3CCCC[C@H]3C(=O)N[C@@H](C)C(=O)N3C[C@H](C)C[C@H]3C(=O)O[C@H]2C)c1` [Compound 3, (S)-2-(3-(4-CHLORO-2-FLUOROPHENYL)UREIDO)-3-(M-TOLYL)-N-((2R,6S,8AS,14AS,20S,21S,23AS)-2,6,21-TRIMETHYL-5,8,14,19,23-PENTAOXOOCTADECAHYDRO-1H,5H,14H,19H-PYRIDO[2,1-I]DIPYRROLO[2,1-C:2′,1′-L][1]OXA[4,7,10,13]TETRAAZACYCLOHEXADECIN-20-YL)PROPANAMIDE] ({NH(4-Cl-2-F-phenyl)-CO}-[Phe(3-Me)][aThr]P[Pip]A[Pro(4R-Me)]; ester 2-C), the MIC in the series on B. subtilis (MIC) stood at 0.078 µM (≈ 0.0643 µg/mL). Also, in the series “Plasma pharmacokinetics” (setting [4]), the AUC(0-inf) worked out at 12600 ng·h/mL, the AUC(0-t) is 12500 ng·h/mL, the “C^0” value was found to be 13482.56 ng/mL and the clearance is 13.3 mL/min/kg. In the series “Plasma pharmacokinetics” (setting [4]), this molecule had a half-life of 3.4 h. Further, the Vd in the series “Plasma pharmacokinetics” (setting [3]) worked out at 2.08 L/kg.

The molecule `Cc1cc(C)cc(C[C@H](NC(=O)Nc2ccc(Cl)cc2F)C(=O)N[C@@H]2C(=O)N3CCC[C@H]3C(=O)N3CCCC[C@H]3C(=O)N[C@@H](C)C(=O)N3C[C@H](C)C[C@H]3C(=O)O[C@H]2C)c1` [Compound 4, (S)-2-(3-(4-CHLORO-2-FLUOROPHENYL)UREIDO)-3-(3,5-DIMETHYLPHENYL)-N-((2R,6S,8AS,14AS,20S,21S,23AS)-2,6,21-TRIMETHYL-5,8,14,19,23-PENTAOXOOCTADECAHYDRO-1H,5H,14H,19H-PYRIDO[2,1-I]DIPYRROLO[2,1-C:2′,1′-L][1]OXA[4,7,10,13]TETRAAZACYCLOHEXADECIN-20-YL)PROPANAMIDE] ({NH(4-Cl-2-F-phenyl)-CO}-[Phe(3,5-Me2)][aThr]P[Pip]A[Pro(4R-Me)]; ester 2-C) registered an IC50 at 72 h in series [1] of 11 ± 1.9 µM. In the series with B. subtilis (MIC), the MIC is 1.25 µM (≈ 1.05 µg/mL).

On to `Cc1cccc(C[C@H](NC(=O)Nc2ccc(Cl)cc2F)C(=O)N[C@@H]2C(=O)N3CCC[C@H]3C(=O)N(C)C([C@@H](C)O)C(=O)N[C@@H](C)C(=O)N3C[C@H](C)C[C@H]3C(=O)O[C@H]2C)c1` (stereo partly drawn) [Compound 5] ({NH(4-Cl-2-F-phenyl)-CO}-[Phe(3-Me)][aThr]P[ξNMeThr]A[Pro(4R-Me)]; ester 2-C), for which the IC50 at 72 h in series [1] is over 10 µM. Besides, the figures for the MIC in the series on B. subtilis (MIC) and in the series with S. pneumoniae were 0.156 µM (≈ 0.129 µg/mL) and 0.039 µM (≈ 0.0323 µg/mL), respectively.
